Measurements from publication PMC11157767 (Molecular Cancer, 2024).
Where two headings read alike, the source gives them in different places.

Assay: Brain pharmacokinetics in CD-1 nude mice (NCA)
Format: in vivo, mouse
Details: for maximal concentration of unbound drug in the brain: estimated with Fu,b; for concentration reached in brain tissues: total drug
Procedure: Fig. 2 TFG-MET-driven mouse model and pharmacokinetic profiles of MET inhibitors. a Schematic illustrating the method and utilized vectors to induce CRISPR/Cas9-mediated Trp53 deletion and TFG-MET overexpression following in utero electroporations. b H&E staining and Immunohistochemical analysis of a tumor generated by in utero electroporation, visualized by the HA-tag of TFG-MET. […] Three mice were analyzed per compound and time point. Error bars indicate the standard deviation. Dashed rectangles indicate time windows of radiation in the following preclinical allograft study
See Methods – Pharmacokinetics section for a description of abbreviations.

[1] = CD-1 nude, mouse, 25 mg/kg, Brain, NCA estimate
[2] = CD-1 nude, mouse, Brain, NCA estimate
[3] = CD-1 nude, mouse, Brain, NCA estimate, read-out: Kp,last

Compound | Clast (Brain, NCA estimate) [ng/mL] | Tlast (Brain, NCA estimate) [h] | brain concentration at 16 hours post-dose (CD1 nude mice) | maximal concentration of unbound drug in the brain (CD1 nude mice) | concentration reached in brain tissues (CD1 nude mice) [nM] | AUC(0-inf) [1] [ng·h/mL] | CL/F [1] [mL/min/kg] | half-life [1] [h] | k el [1] [s⁻¹] | Kp (CD-1 nude, mouse, 25 mg/kg, Brain, NCA estimate, read-out: Kp,inf) | Vd/F (CD-1 nude, mouse, 25 mg/kg, Brain, NCA estimate, read-out: Vz/F) [L/kg] | AUC(0-t) [2] [ng·h/mL] | Cmax [2] [ng/mL] | Tmax [2] [h] | Kp [3] | time after administration with higher effective exposure in the murine brain than crizotinib (mouse, in vivo)
CNC(=O)c1ccc(-c2cnc3ncc(Cc4ccc5ncccc5c4)n3n2)cc1F [Capmatinib] | 42.4 | 8 | below the detection limit | ~ 103 nM | > 1000 | 1260 | 330 | 2.34 | 8.22e-05 | 0.0768 | 67 | 1140 | 486 | 0.5 | 0.0765 | up to 8 hours
C[C@@H](Oc1cc(-c2cnn(C3CCNCC3)c2)cnc1N)c1c(Cl)ccc(F)c1Cl [Crizotinib] | 453 | 16 | – | ~ 11 nM | > 1000 | – | – | – | – | – | – | 6570 | 453 | 4 | 0.155 | –
